Measured values taken from patent US8084490B2, “Sulfamate and sulfamide derivatives useful for the treatment of epilepsy and related disorders” (Janssen Pharmaceutica N.V., priority 2004, dated 2011).

Experiments:
CF-1 male albino mice = experiment: Maximal Electroshock Test (MES); assay type: in vivo; conditions: oral; for MES Activity (in words): time not stated
Method: Anticonvulsant activity was determined using the MES test, run according to the procedure described in detail below. Swinyard E A, Woodhead J H, White H S, Franklin M R. Experimental selection, quantification, and evaluation of anticonvulsants. In Levy R H, et al., eds. Antiepileptic Drugs. 3rd ed. New York: Raven Press, 1989:85-102
CF-1 male albino mice (25-35 g) were fasted for 16 hours before testing. Mice were randomly selected into control and test groups, with the animals dosed with vehicle or test compound, at varying concentrations, respectively. On the study date, at 30 minutes prior to shock, the mice were orally dosed with vehicle (0.5% methylcellulose) or test compound (100-300 mg/kg). Seizures were induced by trans-corneal electric shock using a 60-Hz alternating current, 50 mA, delivered for 0.2 sec. The mice in the test groups were subjected to electrical stimulus at time intervals between 15 minutes and 4 hours following administration of test compound. […] The test was complete when the entire course of the convulsion has been observed (typically, less than 1 minute after electrical stimulation), and the mice were then immediately euthanized by carbon dioxide inhalation.
Abolition of the full body tonic extensor component of the seizure was taken as the endpoint of the test. […] The ED50 value of the test compound (calculated when appropriate) was the calculated dose required to block the hind limb tonic-extensor component of the MES-induced seizure in 50% of the rodents tested. A probit analysis was used to calculate the ED50 and 95% fiducial limits (FL).
Representative compounds of the present invention were tested according to the procedure described above, with results as listed in Table 4 below. Results are listed as number of mice with full body tonic extension prevented/total number of mice tested @ time (at a given test compound dosage level).

carbonic anhydrase = conditions: background statement, no assay details; cited from earlier work

melting point [°C]	Compound	also measured
97 to 98	CN(CC1COc2ccccc2O1)S(N)(=O)=O (stereo not shown) [ID No. 7, N-(2,3-Dihydro-benzo[1,4]dioxin-2-ylmethyl)-N-methylsulfamide]	
100 to 101	NS(=O)(=O)NCC1CCc2ccccc2O1 (stereo not shown) [ID No. 10, Chroman-2-ylmethylsulfamide]	
87 to 90	NS(=O)(=O)OCC1CCc2ccccc2O1 (stereo not shown) [ID No. 11, Chroman-2-ylmethylsulfamate]	
101 to 103	NS(=O)(=O)NCCC1COc2ccccc2O1 (stereo not shown) [ID No. 16, 2-(2,3-Dihydro-benzo[1,4]dioxin-2-yl)-ethylsulfamide]	MES Activity: number of mice with full body tonic extension prevented/total number of mice tested (CF-1 male albino mice; 300 mg/kg, @ 0.5 h): 5/5 @ 0.5 h (300 mg/kg)
119 to 121	NS(=O)(=O)NC[C@H]1COc2cc(Cl)c(Cl)cc2O1 [ID No. 29, (2S)-(−)-N-(6,7 Dichloro-2,3-dihydro-benzo[1,4]dioxin-2-ylmethyl)-sulfamide]	MES Activity: number of mice with full body tonic extension prevented/total number of mice tested (CF-1 male albino mice; 100 mg/kg, @ 4 h): 3/5 @ 4 h (100 mg/kg)
76 to 78	CN(C)S(=O)(=O)NCC1COc2ccccc2O1 (stereo not shown) [ID No. 6, N-(2,3-Dihydro-benzo[1,4]dioxin-2-ylmethyl)-N′,N′ dimethylsulfamide]	

The remaining lines, values behind:

Compound	melting point [°C]	also measured
Nc1ccc2c(c1)O[C@@H](CNS(N)(=O)=O)CO2 [ID No. 36, (2S)-(−)-N-(7-Amino-2,3-dihydro-benzo[1,4]dioxin-2-ylmethyl)-sulfamide]		MES Activity (in words) (CF-1 male albino mice; 100 mg/kg): Inactive @ 100 and 300 mg/kg; MES Activity (in words) (CF-1 male albino mice; 300 mg/kg): Inactive @ 100 and 300 mg/kg
Cc1ccc2c(c1)O[C@@H](CNS(N)(=O)=O)CO2 [ID No. 19, (2S)-(−)-N-(7-Methyl-2,3-dihydro-benzo[1,4]dioxin-2-ylmethyl)-sulfamide]		MES Activity: number of mice with full body tonic extension prevented/total number of mice tested (CF-1 male albino mice; 300 mg/kg, @ 0.5 h): 5/5 @ 0.5 h (300 mg/kg)
NS(=O)(=O)OC[C@H]1COc2cc(Cl)ccc2O1 (stereo in doubt) [ID No. 12, Sulfamic acid, 6-chloro-2,3-dihydro-benzo[1,4]dioxin-2-ylmethyl ester]	113 to 116	
CC1(C)O[C@@H]2[C@@H](CO[C@@]3(COS(N)(=O)=O)OC(C)(C)O[C@@H]23)O1 [Topiramate]		carbonic anhydrase inhibition (carbonic anhydrase): single digit micromolar
NS(=O)(=O)NC[C@H]1COc2ccccc2O1 [ID No. 4, (2S)-(−)-N-(2,3-Dihydro-benzo[1,4]dioxin-2-ylmethyl)-sulfamide]		MES Activity: number of mice with full body tonic extension prevented/total number of mice tested (CF-1 male albino mice; 300 mg/kg, @ 1 h): 5/5 @ 1 h (300 mg/kg)
NS(=O)(=O)OC[C@H]1COc2cc(Cl)c(Cl)cc2O1 [ID No. 27, Sulfamic acid, 6.7 dichloro-2,3-dihydro-benzo[1,4]dioxin-2-ylmethyl ester]	109 to 111	MES Activity: number of mice with full body tonic extension prevented/total number of mice tested (CF-1 male albino mice; 100 mg/kg, @ 4 h): 5/5 @ 4 h (100 mg/kg)
